ChEMBL document CHEMBL5303304, “EUbOPEN Chemogenomics Library - IncuCyte” (2023)
Several values for one entry are separate records, joined by “and”; a condition that tells them apart may be missing. Equal entries are not always repeated.

How the values were obtained:
Type in all cases: toxicity, cell-based
HEK-293T = experiment: Incucyte cell viability with HEK293T; settings: human, 10 µM, compound concentration 10 uM
Fibroblast = experiment: Incucyte cell viability with human fibroblast; settings: 10 µM, compound concentration 10 uM
U2OS = experiment: Incucyte cell viability with U2OS; settings: human, 10 µM, compound concentration 10 uM
Also: unitless GR value; below 1 slowed growth and below 0 cell loss.

O=C(O)Cc1ccc(CCNS(=O)(=O)c2ccc(Cl)cc2)cc1 [DALTROBAN]
Growth Rate (HEK-293T; 6 h, replicate number 1): 0.23
Growth Rate (HEK-293T; 6 h, replicate number 2): 0.8
Growth Rate (HEK-293T; 12 h, replicate number 1): 0.38
Growth Rate (HEK-293T; 12 h, replicate number 2): 0.95
Growth Rate (HEK-293T; 18 h, replicate number 1): 0.67
Growth Rate (HEK-293T; 24 h, replicate number 1): 0.72
Growth Rate (Fibroblast; 0 h, replicate number 2): -0.53
Growth Rate (Fibroblast; 24 h, replicate number 1): 0.99
Growth Rate (U2OS; 24 h, replicate number 1): 0.96

CC[C@H](CO)Nc1nc(Nc2cccc(-c3ccccn3)c2)c2ncn(C(C)C)c2n1.Cl.O
Growth Rate (HEK-293T; 6 h, replicate number 1): -0.37
Growth Rate (HEK-293T; 6 h, replicate number 2): -0.77
Growth Rate (HEK-293T; 12 h, replicate number 1): -0.07
Growth Rate (HEK-293T; 12 h, replicate number 2): -0.31
Growth Rate (HEK-293T; 18 h, replicate number 1): 0.07
Growth Rate (HEK-293T; 18 h, replicate number 2): -0.09
Growth Rate (HEK-293T; 24 h, replicate number 1): 0.16
Growth Rate (HEK-293T; 24 h, replicate number 2): 0
Growth Rate (Fibroblast; 0 h, replicate number 1): -0.64
Growth Rate (Fibroblast; 6 h, replicate number 1): 0.1
Growth Rate (Fibroblast; 6 h, replicate number 2): 0.21
Growth Rate (Fibroblast; 12 h, replicate number 1): 0.05
Growth Rate (Fibroblast; 12 h, replicate number 2): 0.28
Growth Rate (Fibroblast; 18 h, replicate number 1): 0.33
Growth Rate (Fibroblast; 18 h, replicate number 2): 0.45
Growth Rate (Fibroblast; 24 h, replicate number 1): 0.45
Growth Rate (Fibroblast; 24 h, replicate number 2): 0.49
Growth Rate (U2OS; 0 h, replicate number 1): -0.98
Growth Rate (U2OS; 12 h, replicate number 1): 0.96
Growth Rate (U2OS; 18 h, replicate number 1): 0.92
Growth Rate (U2OS; 24 h, replicate number 1): 0.76

O=S(=O)(Nc1ccc(C(O)(C(F)(F)F)C(F)(F)F)cc1)c1cccs1
Growth Rate (HEK-293T; 6 h, replicate number 1): 0.89
Growth Rate (HEK-293T; 12 h, replicate number 2): 0.89
Growth Rate (HEK-293T; 18 h, replicate number 1): 0.88
Growth Rate (HEK-293T; 24 h, replicate number 1): 0.87
Growth Rate (HEK-293T; 24 h, replicate number 2): 0.9
Growth Rate (Fibroblast; 0 h, replicate number 2): 0.56
Growth Rate (Fibroblast; 6 h, replicate number 2): 0.87
Growth Rate (Fibroblast; 12 h, replicate number 1): 0.76
Growth Rate (Fibroblast; 18 h, replicate number 1): 0.89
Growth Rate (Fibroblast; 18 h, replicate number 2): 0.93
Growth Rate (Fibroblast; 24 h, replicate number 2): 0.87
Growth Rate (U2OS; 0 h, replicate number 1): -0.75
Growth Rate (U2OS; 0 h, replicate number 2): 0.65
Growth Rate (U2OS; 6 h, replicate number 1): 0.58
Growth Rate (U2OS; 12 h, replicate number 1): 0.46
Growth Rate (U2OS; 18 h, replicate number 1): 0.7
Growth Rate (U2OS; 24 h, replicate number 1): 0.8

Clc1ccccc1C(c1ccccc1)(c1ccccc1)n1cccn1
Growth Rate (HEK-293T; 0 h, replicate number 1): 0.43
Growth Rate (HEK-293T; 0 h, replicate number 2): 0.27 and 0.15
Growth Rate (HEK-293T; 6 h, replicate number 1): 0.05
Growth Rate (HEK-293T; 6 h, replicate number 2): 0.9
Growth Rate (HEK-293T; 12 h, replicate number 1): 0.26
Growth Rate (HEK-293T; 18 h, replicate number 1): 0.83
Growth Rate (HEK-293T; 24 h, replicate number 1): 0.89
Growth Rate (Fibroblast; 6 h, replicate number 1): 0.64
Growth Rate (Fibroblast; 12 h, replicate number 2): 0.39
Growth Rate (Fibroblast; 18 h, replicate number 1): 0.46
Growth Rate (Fibroblast; 24 h, replicate number 2): 0.54
Growth Rate (U2OS; 0 h, replicate number 2): -0.86
Growth Rate (U2OS; 6 h, replicate number 1): 0.24
Growth Rate (U2OS; 6 h, replicate number 2): 0.65
Growth Rate (U2OS; 12 h, replicate number 1): 0.78
Growth Rate (U2OS; 12 h, replicate number 2): 0.9
Growth Rate (U2OS; 18 h, replicate number 1): 1
Growth Rate (U2OS; 18 h, replicate number 2): 0.94
Growth Rate (U2OS; 24 h, replicate number 1): 0.91

CC(C)c1cnc(NC(=O)Cc2ccccc2)s1
Growth Rate (HEK-293T; 0 h, replicate number 2): 1
Growth Rate (HEK-293T; 6 h, replicate number 1): 0.76
Growth Rate (HEK-293T; 6 h, replicate number 2): 0.51
Growth Rate (HEK-293T; 12 h, replicate number 1): 0.86
Growth Rate (HEK-293T; 12 h, replicate number 2): 0.69
Growth Rate (HEK-293T; 18 h, replicate number 1): 0.8
Growth Rate (HEK-293T; 18 h, replicate number 2): 0.68
Growth Rate (HEK-293T; 24 h, replicate number 1): 0.73
Growth Rate (HEK-293T; 24 h, replicate number 2): 0.69
Growth Rate (Fibroblast; 0 h, replicate number 1): -0.99
Growth Rate (Fibroblast; 6 h, replicate number 2): 0.95
Growth Rate (Fibroblast; 18 h, replicate number 2): 1
Growth Rate (Fibroblast; 24 h, replicate number 1): 0.92
Growth Rate (Fibroblast; 24 h, replicate number 2): 0.99
Growth Rate (U2OS; 0 h, replicate number 2): 0.72
Growth Rate (U2OS; 6 h, replicate number 1): 0.54
Growth Rate (U2OS; 12 h, replicate number 1): 0.87
Growth Rate (U2OS; 12 h, replicate number 2): 0.72
Growth Rate (U2OS; 18 h, replicate number 1): 0.77
Growth Rate (U2OS; 18 h, replicate number 2): 0.97
Growth Rate (U2OS; 24 h, replicate number 1): 0.89
Growth Rate (U2OS; 24 h, replicate number 2): 0.77
